Values of other authors as cited in article PMC5201331, “Subchronic Toxicities of HZ1006, a Hydroxamate-Based Histone Deacetylase Inhibitor, in Beagle Dogs and Sprague-Dawley Rats” (International Journal of Environmental Research and Public …, 2016).

Tests used:
dogs = test system: dogs; design: method as in PMID 19903873; conditions: 26 weeks orally dosed daily with 4-week recovery; cited from earlier work
rats = test system: rats; design: method as in PMID 19903873; conditions: rats, 20, 50 or 150 mg/kg/day, 26 weeks orally dosed daily with 4-week recovery; cited from earlier work
patients = test system: patients; design: method as in PMID 12440223; conditions: day-1 and -5 schedule every 21 days; cited from earlier work

O=C(CCCCCCC(=O)Nc1ccccc1)NO [vorinostat, suberoylanilide hydroxamic acid]
no-observed adverse effect level (dogs): 60 mg/kg/day
no-observed adverse effect level (rats): not established

C/C=C1\NC(=O)[C@H]2CSSCC/C=C/[C@H](CC(=O)N[C@H](C(C)C)C(=O)N2)OC(=O)[C@H](C(C)C)NC1=O [depsipeptide]
MTD (patients): 17.8 mg/m^2
